# Measured values taken from the supplement of paper PMC10883282.
# ± gives the standard deviation of the averaged measurements.
# Test system: SW1353
# Assay: relative viability vs DMSO control (72 h) (fraction); higher = more viable cells
# In short: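 Percent growth from ATPLite readings, averaged over up to triplicate wells, was used as relative viability. Sarcoma cell lines were seeded into 384-well plates for 80–90% confluence, dosed after 24 h, and kept 72 h at 37 °C, 5% CO2. Data were rescaled to a range where 1 is full and 0 is none.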
smiles,measurement,setting,value
COc1cc2c(cc1O)CCN[C@]21CS[C@@H]2c3c(OC(C)=O)c(C)c4c(c3[C@H](COC1=O)N1[C@@H]2[C@H]2c3c(cc(C)c(OC)c3O)C[C@@H]([C@@H]1O)N2C)OCO4 [Trabectedin],relative viability,2 pM,1.09 ± 0.017
same,relative viability,5 pM,1.09 ± 0.027
same,relative viability,15 pM,1.06 ± 0.03
same,relative viability,50 pM,1.04 ± 0.013
same,relative viability,0.00014 µM,1.04 ± 0.03
same,relative viability,0.00041 µM,0.92 ± 0.018
same,relative viability,0.0012 µM,0.0356 ± 0.003
same,relative viability,0.0037 µM,0.229 ± 0.0077
same,relative viability,0.011 µM,0.186 ± 0.015
same,relative viability,200 fM,1.1 ± 0.027
same,relative viability,600 fM,1.1 ± 0.012
Nc1cc(C(F)(F)F)c(-c2cc(N3CCOCC3)nc(N3CCOCC3)n2)cn1 [Buparlisib],relative viability,0.00017 µM,0.984 ± 0.018
same,relative viability,0.00051 µM,0.956 ± 0.011
same,relative viability,0.00152 µM,0.971 ± 0.011
same,relative viability,0.00457 µM,0.982 ± 0.042
same,relative viability,0.01372 µM,0.966 ± 0.059
same,relative viability,0.04115 µM,0.9295 ± 0.0043
same,relative viability,0.1235 µM,0.889 ± 0.03
same,relative viability,0.3704 µM,0.835 ± 0.018
same,relative viability,1.111 µM,0.654 ± 0.0079
same,relative viability,3.333 µM,0.381 ± 0.015
same,relative viability,10 µM,0.266 ± 0.0047
CC(C)NC(=O)C1CCC(n2c(NC(=O)c3ccc(F)cc3)nc3ccc(CN4CCC(C(C)(C)O)CC4)cc32)CC1 (centres undefined) [Belizatinib],relative viability,0.00017 µM,1.02 ± 0.03
same,relative viability,0.00051 µM,0.987 ± 0.045
same,relative viability,0.00152 µM,1.02 ± 0.014
same,relative viability,0.00457 µM,1.05 ± 0.062
same,relative viability,0.01372 µM,1.03 ± 0.015
same,relative viability,0.04115 µM,1.03 ± 0.03
same,relative viability,0.1235 µM,0.944 ± 0.012
same,relative viability,0.3704 µM,0.929 ± 0.022
same,relative viability,1.111 µM,0.808 ± 0.03
same,relative viability,3.333 µM,0.648 ± 0.021
same,relative viability,10 µM,0.441 ± 0.024
N#CC[C@H](C1CCCC1)n1cc(-c2ncnc3[nH]ccc23)cn1 [Ruxolitinib],relative viability,0.00017 µM,1.049 ± 0.0061
same,relative viability,0.00051 µM,1.1 ± 0.052
same,relative viability,0.00152 µM,1.1 ± 0.027
same,relative viability,0.00457 µM,1.09 ± 0.029
same,relative viability,0.01372 µM,1.09 ± 0.029
same,relative viability,0.04115 µM,1.09 ± 0.014
same,relative viability,0.1235 µM,1.05 ± 0.021
same,relative viability,0.3704 µM,1.04 ± 0.011
same,relative viability,1.111 µM,1.03 ± 0.038
same,relative viability,3.333 µM,1.02 ± 0.033
same,relative viability,10 µM,0.807 ± 0.012
